Experimental data from patent US20190192502A1, “Modulation of Transcription Initiation Factor TFIID Subunit 1 (TAF1) for Treating Leukemia” (UNIVERSITY OF MIAMI, priority 2017, published 2019).

Assays:
K562 cells = experiment: Cell growth, CellTiter-Glow luminescent cell viability assay, K562 cells; assay type: cell-based; settings: 3 days of treatment
Procedure: (§1) FIGS. 8A-8F. The effect of TAF1 bromodomain inhibitor Bay-364 on the growth of Kasumi-1 cells, K562 cells and CD34+ cells. (FIGS. 8A-8C) The growth of Kasumi-1 cells, CD34+ cells and K562 cells in the presence or absence of different concentrations of bromodomain inhibitors Bay-364, Bay-299 or JQ-1. The cell growth was measured by CellTiter-Glow luminescent cell viability assay after 3 days of treatment with the inhibitors. Each treatment was in triplicate and shown as average±SD. (FIG. 8D) IC50s (μM) of inhibitors on Kasumi-1, CD34+ and K562 cellsKasumi-1 cells, CD34+ cells and K562 cells were treated with different concentrations of Bay-364, Bay-299 and JQ-1 for three days and cell growth was measured by CellTiter-Glow luminescent cell viability assay. Each treatment was in triplicate and IC50s were calculated using GraphPad Prism. […] RNA was extracted from Kasumi-1 cells treated with or without Bay-364 for 72 hours. mRNA levels of individual genes were standardized by 18S rRNA level. (FIG. 8F) TAF1 working model: Under normal conditions, the acetylation of K43 on AE by p300 is recognized by the bromodomains of TAF1 and TAF1 enhances the binding of AE to chromatin. Then transcription is activated. In absence of TAF1, the binding affinity of AE with chromatin is abrogated, and transcription is blocked. […]

CD34+ cells = experiment: Cell growth, CellTiter-Glow luminescent cell viability assay, CD34+ cells; assay type: cell-based, human; settings: 3 days of treatment
Procedure: as §1, with “level.” for “level. (FIG. 8F) TAF1 working model: Under normal conditions, the acetylation of K43 on AE by p300 is recognized by the bromodomains of TAF1 and TAF1 enhances the binding of AE to chromatin. Then transcription is activated. In absence of TAF1, the binding affinity of AE with chromatin is abrogated, and transcription is blocked.”
Human cord blood was purchased from the New York Blood Center. […] Seven days after the initial plating, colonies were counted and then all the cells were collected for replating weekly with a density of 3000 cells per well for continuous 4 weeks. Cobblestone area forming cell assays (CAFC) were performed as described previously 25, the numbers of total cobblestone area were counted after 5 weeks. […]

Kasumi-1 cells = experiment: Cell growth, CellTiter-Glow luminescent cell viability assay, Kasumi-1 cells; assay type: cell-based, human; settings: for growth of Kasumi-1 cells: 3 days of treatment
Procedure: FIGS. 8A-8F. The effect of TAF1 bromodomain inhibitor Bay-364 on the growth of Kasumi-1 cells, K562 cells and CD34+ cells. (FIGS. 8A-8C) The growth of Kasumi-1 cells, CD34+ cells and K562 cells in the presence or absence of different concentrations of bromodomain inhibitors Bay-364, Bay-299 or JQ-1. The cell growth was measured by CellTiter-Glow luminescent cell viability assay after 3 days of treatment with the inhibitors. Each treatment was in triplicate and shown as average±SD. (FIG. 8D) IC50s (μM) of inhibitors on Kasumi-1, CD34+ and K562 cellsKasumi-1 cells, CD34+ cells and K562 cells were treated with different concentrations of Bay-364, Bay-299 and JQ-1 for three days and cell growth was measured by CellTiter-Glow luminescent cell viability assay. Each treatment was in triplicate and IC50s were calculated using GraphPad Prism. […] RNA was extracted from Kasumi-1 cells treated with or without Bay-364 for 72 hours. mRNA levels of individual genes were standardized by 18S rRNA level. (FIG. 8F) TAF1 working model: Under normal conditions, the acetylation of K43 on AE by p300 is recognized by the bromodomains of TAF1 and TAF1 enhances the binding of AE to chromatin. Then transcription is activated. In absence of TAF1, the binding affinity of AE with chromatin is abrogated, and transcription is blocked.
Kasumi-1 cells were grown in RPMI 1640 supplemented with 20% fetal bovine serum, SKNO-1 cells were grown in RPMI 1640 with 10% fetal bovine serum and 10 ng/ml GM-CSF. K562 cells were grown in IMDM with 10% fetal bovine serum.
Bay-364 (also Bay-299N) is a commercially available small molecule inhibitor of the second bromodomain in TAF1. Given the essential role of TAF1 in the proliferation of AE expressing cells, the effect of Bay-364 on the growth of Kasumi-1, K562 and CD34+ cells was examined. […] JQ-1 inhibits the bromodomains of several BET family proteins including BRD2, BRD3, BRD4 and BRDT.

[1] = test system: AE upregulated genes (ID1, CARM1, MYC); experiment: Realtime PCR of AE upregulated genes in Kasumi-1 cells; assay type: cell-based, human; settings: 72 hours, standardized by 18S rRNA level
Procedure: as §1, with “activated.” for “activated. In absence of TAF1, the binding affinity of AE with chromatin is abrogated, and transcription is blocked.”
RNA was extracted using RNeasy mini kit (Qiagen) and cDNA was generated by QuantiTect Rev. […]

SMILES	growth of K562 cells (K562 cells)	growth of CD34+ cells (CD34+ cells)	growth of Kasumi-1 cells (Kasumi-1 cells)	mRNA levels of ID1, CARM1, MYC [1]	IC50s on Kasumi-1 cells compared with CD34+ cells (Kasumi-1 cells; three days, GraphPad Prism)
Cc1cc2c(cc1N1C(=O)c3cccc4c(CCCO)ccc(c34)C1=O)n(C)c(=O)n2C [Bay-299, 6-(3-Hydroxypropyl)-2-(1,3,6-trimethyl-2-oxo-2,3-dihydro-1Hbenzimidazol-5-yl)-1H-benzo[de]isoquinoline-1,3(2H)-dione]	suppresses the growth	suppresses the growth	suppresses the growth		
Cn1c(=O)[nH]c2cc(N3C(=O)c4cccc5c(CCCO)ccc(c45)C3=O)ccc21 [Bay-364]	little influence on the growth	much less toxicity on HSPCs	more sensitive to Bay-364 treatment than CD34+ cells	repressed the expression of these genes	
Cc1sc2c(c1C)C(c1ccc(Cl)cc1)=N[C@@H](CC(=O)OC(C)(C)C)c1nnc(C)n1-2 [JQ-1]			more potent than Bay-364		quite similar
